US20180333382A1, “PHARMACEUTICAL COMPOSITIONS COMPRISING DGLA AND USE OF SAME” (DS Biopharma Limited, priority 2017, published 2018)
“Also recorded” adds a separate entry of the source. Marks after values point to notes of the source that are not given here.

What was measured:
Assay type in all cases: in vivo, human
[1] = Phase II study: safety (adverse events); details: oral, 2 g once daily for 8 weeks
From the text: Subjects visited the clinic on 6 occasions: at screening, baseline, week 2, week 4, week 8 (end of treatment/early termination) and week 10 (follow-up). All subjects exited the study at the week 10 visit. The primary efficacy variable was the proportion of patients achieving an IGA of 0 (clear) or 1 (almost clear), and a decrease of at least 2 points in IGA at week 8. Secondary efficacy variables included: IGA at other visits, pruritus (obtained from the SCORAD visual analog scale), EASI, BSA, POEM, DLQI, SCORAD and TEWL (for selected sites only). Safety was assessed through adverse events, physical examination, vital signs and safety laboratory tests (including pregnancy tests for women of childbearing potential). Pharmacokinetic samples were obtained at Baseline (Day 0), week 4 and week 8 visits in order to measure total and free DGLA plasma trough levels. Separate plasma samples were retained for later analysis of total fatty acid profile and interleukin profile.
Laboratory tests were performed at screening, Day 0, Week 4 and Week 8. If Week 8 results indicated a clinically significant change from baseline, laboratory tests were also performed at Week 10. […]
Efficacy was evaluated on the basis of the ITT population and analyses were performed based on the randomized treatment and not on the treatment received. […]

[2] = tested on: patients with moderate to severe atopic dermatitis having normal eosinophil levels; experiment: Post hoc stratification of the phase II study by eosinophil level (normal <0.3×10^9/L); details: for Percentage Change of BSA Levels From Baseline, Mean / Percentage Change of DLQI Scores From Baseline, Mean / Percentage Change of EASI Scores From Baseline, Mean / Percentage Change of IGA Scores From Baseline, Mean / Percentage Change of POEM Scores From Baseline, Mean / Percentage Change of SCORAD Levels From Baseline, Mean / Percentage Change of VAS Scores From Baseline, Mean: Normal Eosinophil Population
Procedure: (§1) Further to the randomized, double-blind, placebo-controlled, phase II study of Example 2 above, a post hoc stratification analysis was performed using the results of that study to assess the efficacy of orally administered DS107G (DGLA) to patients with moderate to severe atopic dermatitis having normal eosinophil levels of less than about 0.3×10^9/L compared to the same population receiving placebo and/or to the total study population. The primary objective of the post hoc stratification study was to compare the efficacy of orally administered DS107G capsules, versus placebo, in the treatment of adult patients with moderate to severe atopic dermatitis having normal eosinophil levels of less than about 0.3×10^9/L. The secondary objective was to compare the efficacy of orally administered DS107G capsules in the treatment of adult patients with moderate to severe atopic dermatitis having normal eosinophil levels of less than about 0.3×10^9/L versus the total study population. Unless stated otherwise, all elements of the post hoc stratification analysis were the same as those of the phase II study described in Example 2 above.

[3] = tested on: eosinophil; experiment: Phase II study: eosinophil concentrations by ethnicity and responder status
Procedure: Laboratory tests were performed at screening, Day 0, Week 4 and Week 8. If Week 8 results indicated a clinically significant change from baseline, laboratory tests were also performed at Week 10. The tests included urinalysis, hematology with differential and coagulation testing, a standard chemistry panel (chemistry includes liver function tests and cholesterol), coagulation, serum pregnancy test (screening and week 8 early termination visits) for women of childbearing potential (WOCBP). At baseline (Day 0), week 2, week 4 and week 10 visits, a urine pregnancy test was performed for women of childbearing potential (conducted at the investigator site).
Eosinophils are a type of white blood cell that play an important role in the body's response to allergic reactions, asthma, and infection with parasites. Eosinophils usually account for less than 7% of the circulating white blood cells (100 to 500 eosinophils per microliter of blood). These cells have a role in the protective immunity against certain parasites but also contribute to the inflammation that occurs in allergic disorders.
FIG. 30A-B. In particular, 56% of DS107-treated African America patients were classified as Responders, versus only 7% of Caucasian patients. […]

[4] = tested on: patients with moderate to severe atopic dermatitis having high eosinophil levels; experiment: Post hoc stratification of the phase II study: subgroup with high eosinophil > 0.3 × 10^9/L; details: daily, 8 weeks
Procedure: as §1
A comparison of the total study population (see column “DS107 Phase 2a I.T.T.”), patients having normal eosinophil levels, and patients having high eosinophil levels separated by patients who received DS107 or placebo is shown in Table 32 below.

[5] = Normal Eosinophil < 0.3 × 10^9/L, daily, 8 weeks
[6] = Normal Eosinophil < 0.3 × 10^9/L, daily, 8 weeks, LOCF
[7] = normal eosinophil levels, weeks 2, 4, 6, 8 and 10, vs placebo or total study population
[8] = patients having normal eosinophil levels
[9] = study population having normal eosinophil levels, oral, once daily, 8 weeks

Compound: CCCCC/C=C\C/C=C\C/C=C\CCCCCCC(=O)O [DS107G, Dihomo gamma linolenic acid]
- drug related Serious Adverse Events [1]: no drug related Serious Adverse Events
- tolerability [1]: very well tolerated
- EASI-50 (%) [2, 5]: 60%
- EASI-75 (%) [2, 5]: 40%
- BSA Change from Baseline [2, 6]: −41% *
- EASI Percentage Change from Baseline [2, 6]: −51% *
- IGA responder (%) [2, 6]: 42% *
- Pruritus Percentage Change from Baseline [2, 6]: −53% *
- Percentage Change of BSA Levels From Baseline, Mean ([2]; Week 2): −10.8%
- Percentage Change of DLQI Scores From Baseline, Mean ([2]; Week 2): −41.3%
- Percentage Change of EASI Scores From Baseline, Mean ([2]; Week 2): −20.7%
- Percentage Change of IGA Scores From Baseline, Mean ([2]; Week 2): −15.1%
- Percentage Change of POEM Scores From Baseline, Mean ([2]; Week 2): −41.8%
- Percentage Change of SCORAD Levels From Baseline, Mean ([2]; Week 2): −16.5%
- Percentage Change of VAS Scores From Baseline, Mean ([2]; Week 2): −29.8%
- Percentage Change of BSA Levels From Baseline, Mean ([2]; Week 4): −21.2%
- Percentage Change of DLQI Scores From Baseline, Mean ([2]; Week 4): −58.2%
- Percentage Change of EASI Scores From Baseline, Mean ([2]; Week 4): −41.9%
- Percentage Change of IGA Scores From Baseline, Mean ([2]; Week 4): −28.8%
- Percentage Change of POEM Scores From Baseline, Mean ([2]; Week 4): −55.3%
- Percentage Change of SCORAD Levels From Baseline, Mean ([2]; Week 4): −34.8%
- Percentage Change of VAS Scores From Baseline, Mean ([2]; Week 4): −50.9%
- Percentage Change of BSA Levels From Baseline, Mean ([2]; Week 8): −41.0%
- Percentage Change of DLQI Scores From Baseline, Mean ([2]; Week 8): −57.5%
- Percentage Change of EASI Scores From Baseline, Mean ([2]; Week 8): −51.1%
- Percentage Change of IGA Scores From Baseline, Mean ([2]; Week 8): −42.6%
- Percentage Change of POEM Scores From Baseline, Mean ([2]; Week 8): −53.1%
- Percentage Change of SCORAD Levels From Baseline, Mean ([2]; Week 8): −44.3%
- Percentage Change of VAS Scores From Baseline, Mean ([2]; Week 8): −52.7%
- Percentage Change of BSA Levels From Baseline, Mean ([2]; Week 10): −49.7%
- Percentage Change of DLQI Scores From Baseline, Mean ([2]; Week 10): −61.6%
- Percentage Change of EASI Scores From Baseline, Mean ([2]; Week 10): −59.6%
- Percentage Change of IGA Scores From Baseline, Mean ([2]; Week 10): −46.2%
- Percentage Change of POEM Scores From Baseline, Mean ([2]; Week 10): −50.1%
- Percentage Change of SCORAD Levels From Baseline, Mean ([2]; Week 10): −47.1%
- Percentage Change of VAS Scores From Baseline, Mean ([2]; Week 10): −47.7%
- effect in patients having normal eosinophil levels compared to placebo or the total study population ([2]; in vivo): greater effect; also recorded: higher response rate
- change in BSA levels relative to baseline [2, 7]: greater change
- change in DLQI levels relative to baseline [2, 7]: greater change
- change in EASI scores relative to baseline [2, 7]: greater change
- change in IGA scores relative to baseline [2, 7]: greater change
- change in POEM scores relative to baseline [2, 7]: greater change
- change in SCORAD levels relative to baseline [2, 7]: greater change
- change in VAS scores relative to baseline [2, 7]: greater change
- IGA responder rate ([2]; patients having high eosinophil levels (greater than about 0.3×10^9/L)): 0%
- EASI scoring: patients classified as responders [2, 8]: 51%
- IGA responders (IGA 0 or 1 at Week 8, 2-point decrease) [2, 8]: 42%
- Pruritus scores (VAS): patients classified as responders [2, 8]: 53%
- pruritus reduction [2, 8]: 53%
- EASI (% decrease) [2, 9]: 51%
- IGA responders (%) [2, 9]: 42%
- Pruritus delta (as measured by VAS) [2, 9]: 53%
- Pruritus score decrease (as measured by VAS) [2, 9]: c. (2.0)
- SCORAD (% decrease) [2, 9]: 44%
- eosinophil concentrations ([3]; African American vs Caucasian patients, each time point measured): statistically significant reductions
- eosinophil concentration ([3]; treated Responders vs Non-responders, all time points): statistically significant decrease
- BSA Change from Baseline [4]: −14.9%
- EASI Percentage Change from Baseline [4]: −20.1%
- EASI-50 (%) [4]: 22.7%
- EASI-75 (%) [4]: 9.1%
- IGA responder (%) [4]: 0%
- Pruritus Percentage Change from Baseline [4]: −6.5%
